Measured values: EP0888322B1, “ELECTROPHILIC KETONES FOR THE TREATMENT OF HERPESVIRUS INFECTIONS” (G.D. SEARLE & CO., priority 1996, dated 1997)

Columns and labels:
RC256 = test: Recombinant human cytomegalovirus antiviral assay (RC256, beta-galactosidase); assay type: cell-based, HCMV; conditions: Human betaherpesvirus 5, read-out: Antiviral Activity EC50
Excerpt: (§1) These complimentary assays tested the ability of a compound to inhibit the production of new virus and the toxicity of the compound to the host cells. It was important that both assays be performed simultaneously in order to compare the results directly since, toxicity may indirectly reduce viral yield.
(§2) In this assay, HCMV replication was monitored by the production of E. coli beta-galactosidase by the engineered virus RC256 [Spaete and Mocarski, Proc.Nat.Acad.Sci., 84, 7213 (1987)]. One antiviral assay and one cytotoxicity assay were done for each compound. Dilutions of test compounds and infection of cells in a 96-well plate was essentially as described above for the HCMV ELISA except for the following. Human foreskin fibroblasts at 3.5 x 10^5 cells per milliliter were infected in solution with RC256 at 0.05 pfu per cell. Compounds and cells were incubated 3 days and processed at […]. For the beta galactosidase detection, the supernatant was aspirated from the antiviral assay plates and 50 µl Reporter Lysis Buffer (Promega, diluted to 1X with water) was added per well. The plates were incubated at room temperature at least 30 minutes and plates were frozen at -20 °C at this point for later processing. 50 µl of 2X assay buffer [120 mM Na2HPO4, 80 mM NaH2PO4, 2 mM MgCl2, 100 mM 2-mercaptoethanol, 4.4 mM ONPG (Sigma)] was added per well and incubated at room temperature 30 to 45 minutes. The reaction was stopped with 100 µl 1M CAPS buffer, pH = 11.0, per well and the optical density was read at 410 nanometers. Ganciclovir was used as a positive control and the EC50 was determined as described above for the HCMV ELISA. Results (EC50/TD50) are included in Table 1.

[1] = biological target: T1, Human leukocyte elastase (HLE) (Homo sapiens, UniProt P08246); test: Human leukocyte elastase assay; assay type: biochemical; conditions: read-out: HLE % @ Conc.
T1 construct: gift of R. Senior, Washington University
T1 sequence (P08246 30-267): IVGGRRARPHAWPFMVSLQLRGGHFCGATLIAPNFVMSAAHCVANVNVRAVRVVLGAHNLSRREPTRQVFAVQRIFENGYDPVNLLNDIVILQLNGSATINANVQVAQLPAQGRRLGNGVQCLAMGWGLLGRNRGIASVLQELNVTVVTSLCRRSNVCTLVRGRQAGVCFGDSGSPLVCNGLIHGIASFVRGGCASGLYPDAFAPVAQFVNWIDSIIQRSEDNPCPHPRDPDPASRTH
Protocol: Human leukocyte elastase (HLE) (gift of R. Senior, Washington University) was dissolved in saline at 1 mg/ml and further diluted 1/20 in assay buffer (0.2 M Tris, pH 8.0) before use. 10 µl of test compound in DMSO (or DMSO alone), 100 µl of assay buffer and 50 µl of enzyme were added to 96 well plates, mixed and pre-incubated for 30 minutes at ambient temperature. Reaction was initiated by addition of 40 µl of 2.5 mM methoxysuccinyl-Ala-Ala-Pro-Val-p-nitroanilide (Sigma; 25 mM in DMSO diluted 1/10 in assay buffer before use). The increase in absorbance at 405 nm was monitored for 10 minutes with a Biotek EL340 plate reader.

in vitro [2] = assay type: cell-based; conditions: human
Excerpt: as §1
(§3) Viral yield was estimated by measuring the amount of a viral antigen produced 4 days post infection with a monoclonal antibody to an abundant "immediate early" viral protein. An enzyme-linked (horseradish peroxidase) secondary antibody specific to the primary (mouse) antibody was used to measure the amount of viral antigen. Test compounds were diluted to 2-times the desired final concentration in DMEM + 5% FBS. One hundred microliters of this solution was placed in each well of a 96-well plate. This was performed once for the antiviral 96-well plate and again for a cytotoxicity plate. Two controls were also included for both plates; a no drug control and a no virus control. Ganciclovir was routinely tested in antiviral and cytotoxicity plates as a reference standard because it has known antiviral activity for HCMV. All cells were prepared by harvesting human foreskin fibroblasts, with trypsin and re-suspending at a concentration of 5 X 10^5 cells per ml in DMEM. Infected cells were prepared by infecting these with HCMV (strain AD169) at a multiplicity of infection = 0.2. One hundred microliters of uninfected cells (5 x 10^4 cells) were added to the appropriate wells of the cytotoxicity plate. In a similar manner 100 µl of infected cells (5 x 10^4 cells) were added to the appropriate wells of the antiviral plate. Additionally, uninfected cells not treated with test compound were included as controls on the antiviral plate. Plates were incubated for 96 hours at 37°C in 5% CO2 atmosphere and processed to measure the amount of viral antigen and toxicity.
as §2

[3] = biological target: HCMV protease (Assemblin) (Human cytomegalovirus, UniProt P16753); test: Enzymatic assay for HCMV protease (Assemblin) inhibitors, chromogenic pNA substrate; assay type: biochemical
HCMV protease (Assemblin), sequence (P16753 1-256): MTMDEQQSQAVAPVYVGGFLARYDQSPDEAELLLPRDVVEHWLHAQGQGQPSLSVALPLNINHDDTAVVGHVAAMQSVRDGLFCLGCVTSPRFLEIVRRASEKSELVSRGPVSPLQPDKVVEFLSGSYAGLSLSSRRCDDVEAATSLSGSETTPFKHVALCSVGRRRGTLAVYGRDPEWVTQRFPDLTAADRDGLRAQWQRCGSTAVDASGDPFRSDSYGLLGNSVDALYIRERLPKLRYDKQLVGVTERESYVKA
Protocol: Assemblin protease activity was determined using a chromogenic para-nitroanilide (pNA) substrate based on the hCMV maturation cleavage site, succinyl-AGVVNA-paranitroanilide. […] Potential protease inhibitors were dissolved in DMSO and 10 µL were added to the wells of a 96-well plate (Dynatech, Immulon 1). Enzyme was diluted to 4.8 µg/mL in assay buffer (10 mM sodium phosphate, pH 7.4, 150 mM sodium acetate, 0.1% CHAPS, 20% glycerol) and 100 µL were added to each well. Following a 30 minute incubation at room temperature, 50 µL substrate (1 part 20 mM succinyl-AGVVNA-paranitroanilide (SEQID:1) in DMSO plus 9 parts assay buffer) were added, and periodic readings taken in a microplate reader at 405 nm relative to 650 nm. Activities were expressed as milliabsorbance unit (mAU) change per minute. Inhibitor potency was determined by comparison with incubations lacking inhibitor, which under these conditions gave an increase of 0.5-1 mAU/min. No increase was seen when enzyme was omitted. Results [IC50 (µM)] are included in Table 1.
The construction also encoded six additional histidine residues at the amino terminus of the protease. These additional histidine residues provided an affinity ligand by which it was purified using nickel-nitriloacetic acid-agarose (Qiagen).
The purified protease was stored as a 1-3 mg/ml stock solution in 20 mM HEPES buffer, pH 7.4; containing 20% (v/v) glycerol. This stock was diluted with assay buffer to 4.8 µg/ml. A 100 µL aliquot of this solution was used in the enzyme reaction.
A specific substrate was synthesized based on the cleavage specificity of HCMV protease at the "maturation site" of the assembly protein (F. Liu and B. Roizman, J. Virol., 65, 5149 (1991), and A. Welch, et al, J. Virol., 65, 4091 (1991)). The assembly protein maturation site has the sequence ...AGVVNA*SCRLATA...; the substrate used was succinyl-[…] (SEQID:1) which was prepared by standard peptide synthetic methods such as that described in Bodansky and Bodansky, "The Practice of Peptide Synthesis" (1984), and was stored as a stock solution at 20 mM in dimethyl sulfoxide. This was diluted 10-fold with assay buffer to give a concentration of 2 mM just before use. An aliquot of 50 µL was used in the reaction
An assay Buffer (10 mM sodium phosphate buffer, pH 7.4; 150 mM sodium acetate; 0.1% CHAPS; and 20% (v/v) glycerol) was used to dilute stock solutions of enzyme and substrate.

[4] = biological target: T2, Bovine pancreas α-chymotrypsin (Bos taurus, UniProt P00766, DEL14-15/DEL147-148); test: Chymotrypsin assay; assay type: biochemical; conditions: read-out: Chymotrypsin % @ Conc.
T2 construct: Bovine pancreas α-chymotrypsin (type II, Sigma); purchased Sigma type II; host or cells: bovine pancreas
Protocol: The chymotrypsin assay was modified from the method of Delmar et al [Anal. Biochem., 99, 316-320 (1979)]. Bovine pancreas α-chymotrypsin (type II, Sigma) was dissolved in 0.001 N HCl at 1 mg/ml and further diluted 1/600 in assay buffer (0.1 M Tris, pH 7.8, containing 0.1 M CaCl2) before use. 20 µl of test compound in DMSO (or DMSO alone), 100 µl of assay buffer and 30 µl of enzyme were added to 96 well plates, mixed and pre-incubated for 30 minutes at ambient temperature. Reaction was initiated by addition of 50 µl of 0.2 mM N-succinyl-Ala-Ala-Pro-Phe-p-nitroanilide (Sigma; 2 mM in DMSO diluted 1/10 in assay buffer before use). The increase in absorbance at 405 nm was monitored for 10 minutes with a Biotek EL340 plate reader.

HCMV = HCMV antiviral assay, format (RC256 or ELISA) not given; assay type: cell-based; conditions: Human betaherpesvirus 5, read-out: Antiviral Activity EC50
Excerpt: as §1
Viral yield was estimated by measuring the amount of a viral antigen produced 4 days post infection with a monoclonal antibody to an abundant "immediate early" viral protein. An enzyme-linked (horseradish peroxidase) secondary antibody specific to the primary (mouse) antibody was used to measure the amount of viral antigen. Test compounds were diluted to 2-times the desired final concentration in DMEM + 5% FBS. One hundred microliters of this solution was placed in each well of a 96-well plate. This was performed once for the antiviral 96-well plate and again for a cytotoxicity plate. […]
(§4) The following was performed on the antiviral plate only. […] The reaction was stopped by adding 100 µL of phosphoric acid and the OD at 450 nm recorded. […] Antiviral activity was calculated by comparing the amount of viral antigen produced in drug treated wells with that produced in wells absent of drug. […]
In this assay, HCMV replication was monitored by the production of E. coli beta-galactosidase by the engineered virus RC256 [Spaete and Mocarski, Proc.Nat.Acad.Sci., 84, 7213 (1987)]. […]

HCMV (strain AD169) = test: Antiviral assay, ELISA for HCMV antigens; assay type: cell-based; conditions: Human betaherpesvirus 5, AD169, 96 hours
Excerpt: as §1
Viral yield was estimated by measuring the amount of a viral antigen produced 4 days post infection with a monoclonal antibody to an abundant "immediate early" viral protein. An enzyme-linked (horseradish peroxidase) secondary antibody specific to the primary (mouse) antibody was used to measure the amount of viral antigen. Test compounds were diluted to 2-times the desired final concentration in DMEM + 5% FBS. One hundred microliters of this solution was placed in each well of a 96-well plate. This was performed once for the antiviral 96-well plate and again for a cytotoxicity plate. Two controls were also included for both plates; a no drug control and a no virus control. […]
as §4

in vitro [5] = assay type: cell-based; conditions: human, foreskin fibroblasts
Excerpt: as §1
as §3, with “One hundred microliters of uninfected cells (5 x 10^4 cells) were added to the appropriate wells of the cytotoxicity plate. In a similar manner 100 µl of infected cells (5 x 10^4 cells) were added to the appropriate wells of the antiviral plate. Additionally, uninfected cells not treated with test compound were included as controls on the antiviral plate. Plates were incubated for 96 hours at 37°C in 5% CO2 atmosphere and processed to measure the amount of viral antigen and toxicity.” left out

[6] = read-out: Assemblin Protease % @ Conc.

## O=C(Nc1ccccc1C(=O)C(F)(F)F)c1ccco1 [Example 1, N-[2-(2,2,2-trifluoro-1-oxoethyl)phenyl]furan-2-carboxamide]
RC256
  EC50: 45 µM
[1]; @ 300 µM
  inhibition at 300 µM: 25%
In vitro [2]; foreskin fibroblasts
  CC50: > 100 µM

## O=C(Nc1ccccc1C(=O)C(F)(F)F)c1ccccn1 [Example 11, N-[2-(2,2,2-trifluoro-1-oxoethyl)phenyl]pyridine-2-carboxamide]
[3]; [6]
  inhibition at 33 µM: 40%

## O=C(Nc1ccccc1C(=O)C(F)(F)F)c1cnccn1 [Example 5, N-[2-(2,2,2-trifluoro-1-oxoethyl)phenyl]pyrazine-2-carboxamide]
RC256
  EC50: 55 µM
[4]
  inhibition at 300 µM: 0%
In vitro [2]; foreskin fibroblasts
  CC50: > 100 µM

## O=C(Nc1ccc(I)cc1C(=O)C(F)(F)F)c1ccco1 [Example 13, N-[4-iodo-2-(2,2,2-trifluoro-1-oxoethyl)phenyl]furan-2-carboxamide]
HCMV
  EC50: 28 µM
[4]; @ 33 µM
  inhibition at 33 µM: 39%
[1]; @ 24 µM
  inhibition at 24 µM: 50%
In vitro [2]; human foreskin fibroblasts
  CC50: > 100 µM

## O=C(Nc1ccc(F)cc1C(=O)C(F)(F)F)c1ccco1 [Example 8, N-[4-fluoro-2-(2,2,2-trifluoro-1-oxoethyl)phenyl] furan-2-carboxamide]
[3]; [6]
  inhibition at 33 µM: 18%

## COc1ccccc1C(=O)Nc1ccccc1C(=O)C(F)(F)C(=O)NC(C)C [Example 17, N-[2-(3-(2-propylamino)-3-oxo-2,2-difluoro-1-oxopropyl)phenyl]2-methoxyphenylcarboxamide]
[4]
  inhibition at 300 µM: 0%

## O=C(CCc1ccccc1)Nc1cc([N+](=O)[O-])ccc1C(=O)C(F)(F)F [Example 7, N-[5-nitro-2-[2,2,2-trifluoro-1-oxoethyl)phenyl]benzenepropanamide]
HCMV (strain AD169)
  EC50: 16 µM
[4]
  inhibition at 100 µM: 27%
[3]; [6]
  inhibition at 33 µM: 84%
In vitro [5]
  CC50 at 96 h: > 100 µM

## O=C(Nc1ccccc1C(=O)C(F)(F)F)C(F)(F)F [Example 10, α,α,α-trifluoro-N-[2-(2,2,2-trifluoro-1-oxoethyl)phenyl]acetamide]
HCMV (strain AD169)
  EC50: > 100 µM
[4]
  inhibition at 100 µM: 49%
[3]; @ 10 µM, read-out: Assemblin Protease % @ Conc.
  inhibition at 10 µM: 39%
In vitro [5]
  CC50 at 96 h: > 100 µM

## O=C(Nc1ccccc1C(=O)C(F)(F)F)c1cc2ccccc2s1 [Example 9, N-[2-(2,2,2-trifluoro-1-oxoethyl)phenyl]-1-benzothiophene-2-carboxamide]
RC256
  EC50: 30 µM
[4]
  inhibition at 100 µM: 48%
In vitro [2]; foreskin fibroblasts
  CC50: > 100 µM

## O=C(CCc1ccccc1)Nc1ccccc1C(=O)C(F)(F)F [Example 4, N-[2-(2,2,2-trifluoro-1-oxoethyl)phenyl]benzenepropanamide]
[4]
  inhibition at 100 µM: 11%

## O=C(Nc1ccccc1C(=O)C(F)(F)F)OCc1ccccc1 [Example 6, phenylmethyl N-[2-(2,2,2-trifluoro-1-oxoethyl)phenyl]carbamate]
[4]
  inhibition at 100 µM: 21%

## O=C(CCc1ccccc1)Nc1cc(F)ccc1C(=O)C(F)(F)F [Example 2, N-[5-fluoro-2-(2,2,2-trifluoro-1-oxoethyl)phenyl]benzenepropanamide]
RC256
  EC50: 57 µM
[4]
  inhibition at 100 µM: 48%
[1]; @ 100 µM
  inhibition at 100 µM: 26%
In vitro [2]; foreskin fibroblasts
  CC50: > 100 µM

## N-[2,2,2-trifluoro-1-oxoethyl)phenyl]indolyl-2-carboxamide [Example 15]
[3]; @ 100 µM
  percent inhibition: 30% @ 100

## COc1ccccc1C(=O)Nc1ccccc1C(=O)C(F)(F)F [Example 12, N-[2-(2,2,2-trifluoro-1-oxoethyl)phenyl]2-methoxybenzamide]
[3]; [6]
  inhibition at 33 µM: 14%
